SMILES strings stand for the structures. Like-named read-outs stand apart in the source and are kept apart here.

The values below come from US10308639B2, “Phosphatidylinositol 3-kinase inhibitors” (Gilead Sciences, Inc., priority 2014, dated 2019).

Type in all cases: biochemical
In assay [1] the target is T1, PI3Kβ (Homo sapiens, UniProt P42338).
T1 construct: made in house
Briefly: TR-FRET enzymatic activity assay, PI3Kβ. On the technique in general: TR-FRET usually uses a lanthanide donor and a delayed reading to cut background.

In assay [2] the target is T2, PI3Kδ (Homo sapiens, UniProt O00329).
T2 construct: made in house
Briefly: TR-FRET enzymatic activity assay, PI3Kδ.

Assay [3] concerns the target T3, PI3Kγ (Homo sapiens, UniProt P48736).
T3 construct: made in house
Briefly: TR-FRET enzymatic activity assay, PI3Kγ. The following applies: read-out: PI3Kγ IC50. As to the method:
The compounds of formula (I) were characterized for their enzymatic activity against the PI3K isoforms. The activities were measured using a time-resolved fluorescence resonance energy transfer (TR-FRET) assay.

Setting [4] is: Table 2, TR-FRET, 2x Km ATP, 30 minutes at 25° C.

T3 sequence (P48736 whole entry): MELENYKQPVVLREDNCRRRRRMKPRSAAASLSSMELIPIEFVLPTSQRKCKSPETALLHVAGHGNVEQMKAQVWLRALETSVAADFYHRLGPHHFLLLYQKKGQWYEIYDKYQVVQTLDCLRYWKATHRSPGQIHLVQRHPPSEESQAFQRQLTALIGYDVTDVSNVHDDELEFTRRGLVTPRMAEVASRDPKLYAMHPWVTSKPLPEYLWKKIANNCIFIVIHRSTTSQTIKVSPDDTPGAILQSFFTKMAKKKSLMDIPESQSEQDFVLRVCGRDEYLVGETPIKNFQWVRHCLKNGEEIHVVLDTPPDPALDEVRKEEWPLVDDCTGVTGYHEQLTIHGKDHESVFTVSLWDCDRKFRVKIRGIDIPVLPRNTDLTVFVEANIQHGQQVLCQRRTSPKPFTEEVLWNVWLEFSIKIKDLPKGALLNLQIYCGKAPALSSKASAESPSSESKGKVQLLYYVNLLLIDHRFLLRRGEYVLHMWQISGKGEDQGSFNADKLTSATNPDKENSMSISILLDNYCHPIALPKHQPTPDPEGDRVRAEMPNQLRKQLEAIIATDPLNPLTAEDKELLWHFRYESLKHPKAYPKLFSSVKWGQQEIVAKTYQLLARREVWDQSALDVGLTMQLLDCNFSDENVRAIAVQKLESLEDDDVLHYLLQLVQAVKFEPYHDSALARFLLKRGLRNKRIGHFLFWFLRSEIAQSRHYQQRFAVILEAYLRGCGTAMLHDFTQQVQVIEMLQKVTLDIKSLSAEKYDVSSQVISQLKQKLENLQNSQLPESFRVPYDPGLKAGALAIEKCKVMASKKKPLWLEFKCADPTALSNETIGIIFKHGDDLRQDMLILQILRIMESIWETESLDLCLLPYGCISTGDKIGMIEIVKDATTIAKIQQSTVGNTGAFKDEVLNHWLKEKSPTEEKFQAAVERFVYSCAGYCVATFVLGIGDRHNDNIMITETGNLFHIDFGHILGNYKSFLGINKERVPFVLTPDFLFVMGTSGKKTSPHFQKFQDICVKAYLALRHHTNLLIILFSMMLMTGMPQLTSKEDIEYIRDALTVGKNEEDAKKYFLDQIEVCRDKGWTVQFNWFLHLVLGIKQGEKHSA
T2 sequence (O00329 whole entry): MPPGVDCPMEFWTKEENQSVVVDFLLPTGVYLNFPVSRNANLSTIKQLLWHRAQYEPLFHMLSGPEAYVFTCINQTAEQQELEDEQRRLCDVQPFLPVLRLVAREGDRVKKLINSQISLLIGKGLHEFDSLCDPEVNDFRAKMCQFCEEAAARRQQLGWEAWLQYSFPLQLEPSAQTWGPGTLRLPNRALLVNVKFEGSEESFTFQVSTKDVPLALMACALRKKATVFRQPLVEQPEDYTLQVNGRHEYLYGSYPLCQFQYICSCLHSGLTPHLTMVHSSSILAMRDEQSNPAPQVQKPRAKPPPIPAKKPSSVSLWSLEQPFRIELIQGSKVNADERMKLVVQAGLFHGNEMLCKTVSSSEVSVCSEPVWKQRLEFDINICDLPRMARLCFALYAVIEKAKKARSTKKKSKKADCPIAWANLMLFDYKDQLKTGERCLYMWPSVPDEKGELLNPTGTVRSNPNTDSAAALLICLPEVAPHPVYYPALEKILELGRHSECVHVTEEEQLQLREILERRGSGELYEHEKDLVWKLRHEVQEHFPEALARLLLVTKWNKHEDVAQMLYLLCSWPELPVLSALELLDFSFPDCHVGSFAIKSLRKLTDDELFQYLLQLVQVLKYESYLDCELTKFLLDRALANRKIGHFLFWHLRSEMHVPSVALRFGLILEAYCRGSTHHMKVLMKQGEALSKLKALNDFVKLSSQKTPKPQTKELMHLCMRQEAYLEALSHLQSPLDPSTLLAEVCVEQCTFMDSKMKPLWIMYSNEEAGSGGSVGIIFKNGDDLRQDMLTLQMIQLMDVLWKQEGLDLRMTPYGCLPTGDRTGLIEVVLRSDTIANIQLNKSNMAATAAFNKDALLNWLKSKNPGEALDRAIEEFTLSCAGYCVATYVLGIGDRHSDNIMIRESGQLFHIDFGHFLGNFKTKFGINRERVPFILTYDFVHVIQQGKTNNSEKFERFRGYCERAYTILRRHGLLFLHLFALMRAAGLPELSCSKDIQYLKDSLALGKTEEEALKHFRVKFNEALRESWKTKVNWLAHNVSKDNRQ
T2 sequence (P27986 whole entry partner): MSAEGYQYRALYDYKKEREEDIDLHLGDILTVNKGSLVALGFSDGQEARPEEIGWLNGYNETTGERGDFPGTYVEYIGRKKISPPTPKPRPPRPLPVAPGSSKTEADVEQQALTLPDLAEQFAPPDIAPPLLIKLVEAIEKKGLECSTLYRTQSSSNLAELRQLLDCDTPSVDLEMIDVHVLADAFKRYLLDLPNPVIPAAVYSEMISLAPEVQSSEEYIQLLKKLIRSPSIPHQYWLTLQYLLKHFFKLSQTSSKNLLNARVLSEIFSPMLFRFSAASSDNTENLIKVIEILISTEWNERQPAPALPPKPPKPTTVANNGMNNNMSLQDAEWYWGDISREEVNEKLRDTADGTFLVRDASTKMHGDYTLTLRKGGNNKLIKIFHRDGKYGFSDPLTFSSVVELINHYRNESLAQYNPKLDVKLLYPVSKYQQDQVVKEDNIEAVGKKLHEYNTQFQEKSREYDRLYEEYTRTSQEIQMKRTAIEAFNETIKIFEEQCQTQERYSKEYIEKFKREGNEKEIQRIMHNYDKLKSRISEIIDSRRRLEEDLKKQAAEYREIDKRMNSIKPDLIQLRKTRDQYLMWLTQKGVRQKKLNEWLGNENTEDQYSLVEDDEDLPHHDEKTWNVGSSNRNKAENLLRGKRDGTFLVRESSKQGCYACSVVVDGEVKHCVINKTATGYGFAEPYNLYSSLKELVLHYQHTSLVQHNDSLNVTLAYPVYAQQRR
T1 sequence (P42338 whole entry): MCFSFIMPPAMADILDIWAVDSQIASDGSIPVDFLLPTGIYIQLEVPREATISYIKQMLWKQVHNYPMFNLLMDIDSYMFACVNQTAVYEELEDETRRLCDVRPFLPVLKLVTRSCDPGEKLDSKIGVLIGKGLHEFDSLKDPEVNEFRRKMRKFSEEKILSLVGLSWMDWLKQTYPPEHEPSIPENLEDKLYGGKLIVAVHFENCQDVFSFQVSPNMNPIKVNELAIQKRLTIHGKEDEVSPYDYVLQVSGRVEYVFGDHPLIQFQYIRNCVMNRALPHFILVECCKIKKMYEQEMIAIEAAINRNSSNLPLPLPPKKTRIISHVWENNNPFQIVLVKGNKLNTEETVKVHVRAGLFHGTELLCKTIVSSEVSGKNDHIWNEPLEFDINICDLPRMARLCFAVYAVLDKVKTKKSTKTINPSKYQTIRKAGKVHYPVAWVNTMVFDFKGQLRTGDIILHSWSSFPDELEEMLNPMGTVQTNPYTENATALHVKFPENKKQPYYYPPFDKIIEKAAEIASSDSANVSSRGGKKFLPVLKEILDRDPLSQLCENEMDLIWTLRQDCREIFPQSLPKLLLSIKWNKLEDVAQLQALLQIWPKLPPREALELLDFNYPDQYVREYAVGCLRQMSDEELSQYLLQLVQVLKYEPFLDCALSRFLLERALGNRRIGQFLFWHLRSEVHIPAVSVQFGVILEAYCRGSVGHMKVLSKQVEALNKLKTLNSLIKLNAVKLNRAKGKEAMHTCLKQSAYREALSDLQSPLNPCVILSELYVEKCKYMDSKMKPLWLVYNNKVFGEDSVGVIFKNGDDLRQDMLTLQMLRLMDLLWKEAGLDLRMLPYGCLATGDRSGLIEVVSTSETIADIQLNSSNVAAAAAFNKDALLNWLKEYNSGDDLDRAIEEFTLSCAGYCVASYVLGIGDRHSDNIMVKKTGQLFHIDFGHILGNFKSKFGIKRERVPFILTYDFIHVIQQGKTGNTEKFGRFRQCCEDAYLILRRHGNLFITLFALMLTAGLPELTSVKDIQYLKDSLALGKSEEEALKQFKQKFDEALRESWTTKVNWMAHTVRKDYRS
T1 sequence (P27986 whole entry partner): as the sequence (P27986 whole entry partner) above

With `C[C@H](Nc1nc(N)nc(N)c1C#N)c1nc2cccc(Cl)c2c(=O)n1-c1ccccc1` [(S)-2,4-diamino-6-((1-(5-chloro-4-oxo-3-phenyl-3,4-dihydroquinazolin-2-yl)ethyl)amino)pyrimidine-5-carbonitrile], the “PI3Kγ/PI3Kβ IC50 ratio” value in assay [1] (ratio of IC50 values, text b271) was “less than 1 fold”.

One may read the IC50 as the concentration that gives 50% inhibition. Regarding `CC[C@H](Nc1nc(N)nc(N)c1C#N)c1nc2cccc(Cl)c2c(=O)n1-c1cc[nH]n1` [Compound 1, (S)-2,4-diamino-6-((1-(5-chloro-4-oxo-3-(1H-pyrazol-3-yl)-3,4-dihydroquinazolin-2-yl)propyl)amino)pyrimidine-5-carbonitrile], the results for the IC50 in assay [1] (setting [4]), in assay [2] (setting [4]) and in assay [3] (setting [4]) were 1 nM, 0.6 nM and 330 nM, respectively.

With `Cc1c[nH]nc1-n1c([C@H](C)Nc2ncnc(N)c2C#N)nc2cccc(Cl)c2c1=O` [Compound 3, (S)-4-amino-6-((1-(5-chloro-3-(4-methyl-1H-pyrazol-3-yl)-4-oxo-3,4-dihydroquinazolin-2-yl)ethyl)amino)pyrimidine-5-carbonitrile], the IC50 in assay [1] (setting [4]) amounted to 55 nM; in assay [2] (setting [4]), 2 nM; in assay [3] (setting [4]) it was 3000 nM.

In the case of `CC(C)Cc1cc(-n2c([C@H](C)Nc3ncnc(N)c3C#N)nc3cccc(Cl)c3c2=O)n[nH]1` [Compound 4, (S)-4-amino-6-((1-(5-chloro-3-(5-isobutyl-1H-pyrazol-3-yl)-4-oxo-3,4-dihydroquinazolin-2-yl)ethyl)amino)pyrimidine-5-carbonitrile], the IC50 in assay [1] (setting [4]) worked out at 84 nM; in assay [2] (setting [4]), 7 nM.

Regarding `C[C@H](Nc1ncnc(N)c1C#N)c1nc2cccc(Cl)c2c(=O)n1-c1cc(C2CC2)[nH]n1` [Compound 5, (S)-4-amino-6-((1-(5-chloro-3-(5-cyclopropyl-1H-pyrazol-3-yl)-4-oxo-3,4-dihydroquinazolin-2-yl)ethyl)amino)pyrimidine-5-carbonitrile], the IC50 in assay [1] (setting [4]) was 340 nM; in assay [2] (setting [4]) it was 28 nM; in assay [3], over 10000 nM.

As for `C[C@H](Nc1ncnc(N)c1C#N)c1nc2cccc(Cl)c2c(=O)n1-c1cc(C(F)(F)F)[nH]n1` [Compound 6, (S)-4-amino-6-((1-(5-chloro-4-oxo-3-(5-(trifluoromethyl)-1H-pyrazol-3-yl)-3,4-dihydroquinazolin-2-yl)ethyl)amino)pyrimidine-5-carbonitrile], the IC50 was 730 nM in assay [1] (setting [4]), 150 nM in assay [2] (setting [4]) and over 10000 nM in assay [3].

In the case of `Cc1cc(-n2c([C@H](C)Nc3ncnc(N)c3C#N)nc3cccc(Cl)c3c2=O)n[nH]1` [Compound 7, (S)-4-amino-6-((1-(5-chloro-3-(5-methyl-1H-pyrazol-3-yl)-4-oxo-3,4-dihydroquinazolin-2-yl)ethyl)amino)pyrimidine-5-carbonitrile], the figures for the IC50 in assay [1] (setting [4]), in assay [2] (setting [4]) and in assay [3] were 200 nM, 43 nM and over 10000 nM, respectively.

With `Cc1cc(-n2c([C@H](C)Nc3ncnc4scnc34)nc3cccc(Cl)c3c2=O)n[nH]1` [Compound 8, (S)-5-chloro-3-(5-methyl-1H-pyrazol-3-yl)-2-(1-(thiazolo[5,4-d]pyrimidin-7-ylamino)ethyl)quinazolin-4(3H)-one], the IC50 in assay [1] (setting [4]) is 41 nM; in assay [2] (setting [4]), 11 nM; in assay [3], over 10000 nM.

As to `C[C@H](Nc1ncnc2occc12)c1nc2cccc(Cl)c2c(=O)n1-c1cc[nH]n1` [Compound 9, (S)-5-chloro-2-(1-(furo[2,3-d]pyrimidin-4-ylamino)ethyl)-3-(1H-pyrazol-3-yl)quinazolin-4(3H)-one], the values for the IC50 in assay [1] (setting [4]), in assay [2] (setting [4]) and in assay [3] were 940 nM, 140 nM and over 10000 nM, respectively.

As for `Nc1nc(N)c(Cl)c(N[C@H](c2nc3cccc(F)c3c(=O)n2-c2cc[nH]n2)C2CC2)n1` [Compound 10, (S)-2-(cyclopropyl((2,6-diamino-5-chloropyrimidin-4-yl)amino)methyl)-5-fluoro-3-(1H-pyrazol-3-yl)quinazolin-4(3H)-one], the IC50 in assay [1] (setting [4]) was 71 nM; in assay [2] (setting [4]), 28 nM; in assay [3], over 10000 nM.

As for `Nc1nc(N)c(Cl)c(N[C@H](c2nc3c(F)ccc(F)c3c(=O)n2-c2cc[nH]n2)C2CC2)n1` [Compound 11, (S)-2-(cyclopropyl((2,6-diamino-5-chloropyrimidin-4-yl)amino)methyl)-5,8-difluoro-3-(1H-pyrazol-3-yl)quinazolin-4(3H)-one], the concentration for half-maximal inhibition (IC50) was 120 nM in assay [1] (setting [4]), 44 nM in assay [2] (setting [4]) and over 10000 nM in assay [3].

Regarding `Nc1nc(N)c(Cl)c(N[C@H](c2nc3c(F)cccc3c(=O)n2-c2cc[nH]n2)C2CC2)n1` [Compound 12, (S)-2-(cyclopropyl((2,6-diamino-5-chloropyrimidin-4-yl)amino)methyl)-8-fluoro-3-(1H-pyrazol-3-yl)quinazolin-4(3H)-one], the IC50 is 220 nM in assay [1] (setting [4]), 51 nM in assay [2] (setting [4]) and over 10000 nM in assay [3].

Turning to `Nc1nc(N)c(Cl)c(N[C@H](c2nc3c(Cl)cccc3c(=O)n2-c2cc[nH]n2)C2CC2)n1` [Compound 13, (S)-8-chloro-2-(cyclopropyl((2,6-diamino-5-chloropyrimidin-4-yl)amino)methyl)-3-(1H-pyrazol-3-yl)quinazolin-4(3H)-one], the values for the IC50 in assay [1] (setting [4]), in assay [2] (setting [4]) and in assay [3] were 140 nM, 39 nM and over 10000 nM, respectively.

`Nc1nc(N)c(Cl)c(N[C@H](c2nc3cccc(Cl)c3c(=O)n2-c2cc(Cl)[nH]n2)C2CC2)n1` [Compound 14, (S)-5-chloro-3-(5-chloro-1H-pyrazol-3-yl)-2-(cyclopropyl((2,6-diamino-5-chloropyrimidin-4-yl)amino)methyl)quinazolin-4(3H)-one]: the half-inhibitory concentration (IC50) in assay [1] (setting [4]) was determined as 350 nM; in assay [2] (setting [4]), 51 nM; in assay [3] (setting [4]) it was 7600 nM.

Take `C[C@H](Nc1nc(N)nc(N)c1C#N)c1nc2cccc(Cl)c2c(=O)n1-c1cn[nH]c1` [Compound 15, (S)-2,4-diamino-6-((1-(5-chloro-4-oxo-3-(1H-pyrazol-4-yl)-3,4-dihydroquinazolin-2-yl)ethyl)amino)pyrimidine-5-carbonitrile]: the IC50 in assay [1] (setting [4]) stood at 1 nM; in assay [2] (setting [4]) it was 0.4 nM; in assay [3] (setting [4]), 43 nM.

Turning to `N#Cc1c(N)nc(N)nc1N[C@H](c1nc2cccc(Cl)c2c(=O)n1-c1cn[nH]c1)C1CC1` [Compound 17, (S)-2,4-diamino-6-(((5-chloro-4-oxo-3-(1H-pyrazol-4-yl)-3,4-dihydroquinazolin-2-yl)(cyclopropyl)methyl)amino)pyrimidine-5-carbonitrile], the half-maximal inhibitory concentration (IC50) in assay [1] (setting [4]) was found to be 2 nM; in assay [2] (setting [4]) it was 0.6 nM; in assay [3] (setting [4]) it was 67 nM.

In the case of `Nc1nc(N)c(Cl)c(N[C@H](c2nc3cccc(Cl)c3c(=O)n2-c2cn[nH]c2)C2CC2)n1` [Compound 19, (S)-5-chloro-2-(cyclopropyl((2,6-diamino-5-chloropyrimidin-4-yl)amino)methyl)-3-(1H-pyrazol-4-yl)quinazolin-4(3H)-one], the IC50 is 32 nM in assay [1] (setting [4]), 6 nM in assay [2] (setting [4]) and 1700 nM in assay [3] (setting [4]).

Turning to `CC[C@H](Nc1nc(N)nc(N)c1C#N)c1nc2cccc(Cl)c2c(=O)n1-c1cn[nH]c1` [Compound 21, (S)-2,4-diamino-6-((1-(5-chloro-4-oxo-3-(1H-pyrazol-4-yl)-3,4-dihydroquinazolin-2-yl)propyl)amino)pyrimidine-5-carbonitrile], the IC50 came to 9 nM in assay [1] (setting [4]), 2 nM in assay [2] (setting [4]) and 230 nM in assay [3] (setting [4]).

As to `N#Cc1c(N)nc(N)nc1N1CCC[C@H]1c1nc2cccc(Cl)c2c(=O)n1-c1cn[nH]c1` [Compound 23, (S)-2,4-diamino-6-(2-(5-chloro-4-oxo-3-(1H-pyrazol-4-yl)-3,4-dihydroquinazolin-2-yl)pyrrolidin-1-yl)pyrimidine-5-carbonitrile], the values for the IC50 in assay [1] (setting [4]), in assay [2] (setting [4]) and in assay [3] (setting [4]) were 150 nM, 9 nM and 740 nM, respectively.

On to `Nc1nc(N)c(Cl)c(N[C@H](c2nc3cccc(Cl)c3c(=O)n2-c2cc[nH]n2)C2CCC2)n1` [Compound 127, (S)-5-chloro-2-(cyclobutyl((2,6-diamino-5-chloropyrimidin-4-yl)amino)methyl)-3-(1H-pyrazol-3-yl)quinazolin-4(3H)-one], for which the IC50 in assay [1] (Table 2a, same assay) was 49 nM; in assay [2] (Table 2a, same assay) it was 21 nM.

As to `CC(C)[C@H](Nc1nc(N)nc(N)c1Cl)c1nc2cccc(Cl)c2c(=O)n1-c1cc[nH]n1` [Compound 146, (S)-5-chloro-2-(1-((2,6-diamino-5-chloropyrimidin-4-yl)amino)-2-methylpropyl)-3-(1H-pyrazol-3-yl)quinazolin-4(3H)-one], the IC50 in assay [1] (Table 2a, same assay) was found to be 94 nM; in assay [2] (Table 2a, same assay) it was 25 nM.

As to `C[C@H](Nc1nc(N)nc(C(F)F)c1Cl)c1nc2c(F)c(F)ccc2c(=O)n1-c1cc[nH]n1` [Compound 234, (S)-2-(1-((2-amino-5-chloro-6-(difluoromethyl)pyrimidin-4-yl)amino)ethyl)-7,8-difluoro-3-(1H-pyrazol-3-yl)quinazolin-4(3H)-one], the IC50 in assay [2] (Table 2a, same assay) was 7600 nM; in assay [3] (Table 2a, same assay), over 10000 nM.

`Cc1c[nH]nc1-n1c([C@@H](NC2=NC(N)=NC3=NN=C(Br)C32)C2CC2)nc2cccc(Cl)c2c1=O` (stereo partly drawn) [Compound 242, 2-((1 S)-((6-amino-3-bromo-3aH-pyrazolo[3,4-d]pyrimidin-4-yl)amino)(cyclopropyl)methyl)-5-chloro-3-(4-methyl-1H-pyrazol-3-yl)quinazolin-4(3H)-one]: the IC50 turned out to be 1600 nM in assay [1] (Table 2a, same assay) and 220 nM in assay [2] (Table 2a, same assay).

For `C[C@H](Nc1nc(N)nc(N)c1C#N)c1nc2cccc(Cl)c2c(=O)n1-c1ccccc1` [Compound X, (S)-2,4-diamino-6-((1-(5-chloro-4-oxo-3-phenyl-3,4-dihydroquinazolin-2-yl)ethyl)amino)pyrimidine-5-carbonitrile, reference compound], the PI3Kγ/PI3Kβ ratio in assay [1] (ratio of IC50 values) amounted to 0.6.
